Test results reported in ChEMBL document CHEMBL3232845 (Bioorg Med Chem Lett, 2014).

Assays:
[1] = Antitumor activity against human LOX cells expressing B-Raf V600E mutant xenografted in nude mouse assessed as tumor growth inhibition at 30 mg/kg qd for 4 days measured on day 3; assay type: functional; details: read-out: TGI
[2] = target: RAC-alpha serine/threonine-protein kinase (Homo sapiens) (UniProt P31749); assay: Inhibition of human AKT1 assessed as enzyme activity at 1 uM relative to control; design: scale not given: the % may be the effect or the level left
[3] = target: AMP-activated protein kinase (AMPK) alpha-1/beta-1/gamma-1 (Homo sapiens) (UniProt P54619+Q9Y478+Q13131); assay: Inhibition of human AMPKA1/B1/G1 assessed as enzyme activity at 1 uM relative to control; assay type: protein-complex assay; design: scale not given: the % may be the effect or the level left
Sequence of AMP-activated protein kinase (AMPK) alpha-1/beta-1/gamma-1 (Homo sapiens) (P54619 whole entry): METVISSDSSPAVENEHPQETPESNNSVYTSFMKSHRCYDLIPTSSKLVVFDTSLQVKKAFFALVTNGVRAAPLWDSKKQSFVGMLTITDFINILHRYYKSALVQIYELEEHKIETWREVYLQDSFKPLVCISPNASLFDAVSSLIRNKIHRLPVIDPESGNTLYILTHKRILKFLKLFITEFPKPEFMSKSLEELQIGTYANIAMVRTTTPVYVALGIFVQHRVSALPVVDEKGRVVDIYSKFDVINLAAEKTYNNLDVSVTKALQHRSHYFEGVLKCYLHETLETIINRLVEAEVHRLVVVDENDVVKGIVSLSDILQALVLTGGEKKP
Sequence of AMP-activated protein kinase (AMPK) alpha-1/beta-1/gamma-1 (Homo sapiens) (Q13131 whole entry partner): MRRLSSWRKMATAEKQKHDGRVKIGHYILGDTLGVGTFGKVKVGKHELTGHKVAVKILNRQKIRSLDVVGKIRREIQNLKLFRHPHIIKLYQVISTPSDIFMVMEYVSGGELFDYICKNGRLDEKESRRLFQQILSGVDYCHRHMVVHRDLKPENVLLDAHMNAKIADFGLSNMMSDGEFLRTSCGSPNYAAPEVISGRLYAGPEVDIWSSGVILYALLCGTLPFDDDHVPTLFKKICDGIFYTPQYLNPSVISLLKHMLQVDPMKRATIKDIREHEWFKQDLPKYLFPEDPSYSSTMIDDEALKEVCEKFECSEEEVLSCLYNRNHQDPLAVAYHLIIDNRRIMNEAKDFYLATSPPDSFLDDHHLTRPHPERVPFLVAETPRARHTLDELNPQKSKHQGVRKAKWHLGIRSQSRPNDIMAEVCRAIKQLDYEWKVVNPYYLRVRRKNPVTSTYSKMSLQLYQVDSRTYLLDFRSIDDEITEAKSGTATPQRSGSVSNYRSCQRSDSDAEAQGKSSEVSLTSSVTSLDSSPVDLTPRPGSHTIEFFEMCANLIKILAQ
Sequence of AMP-activated protein kinase (AMPK) alpha-1/beta-1/gamma-1 (Homo sapiens) (Q9Y478 2-270 partner limits assumed): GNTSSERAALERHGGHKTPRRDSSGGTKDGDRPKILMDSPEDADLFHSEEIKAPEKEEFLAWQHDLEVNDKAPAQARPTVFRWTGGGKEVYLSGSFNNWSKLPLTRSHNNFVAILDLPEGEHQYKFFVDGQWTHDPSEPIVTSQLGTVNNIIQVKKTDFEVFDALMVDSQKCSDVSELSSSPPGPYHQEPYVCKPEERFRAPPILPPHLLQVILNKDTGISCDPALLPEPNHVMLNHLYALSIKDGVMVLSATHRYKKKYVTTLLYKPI

Sus scrofa = organism: Sus scrofa; assay: Inhibition of […] pig Abl assessed as enzyme activity at 1 uM relative to control; design: scale not given: the % may be the effect or the level left
[4] = target: Tyrosine-protein kinase receptor UFO (Homo sapiens) (UniProt P30530); assay: Inhibition of human Axl assessed as enzyme activity at 1 uM relative to control; design: scale not given: the % may be the effect or the level left
[5] = target: Serine/threonine-protein kinase BRSK2 (Homo sapiens) (UniProt Q8IWQ3); assay: Inhibition of human BrSK2 assessed as enzyme activity at 1 uM relative to control; design: scale not given: the % may be the effect or the level left
Sequence of Serine/threonine-protein kinase BRSK2 (Homo sapiens) (Q8IWQ3 whole entry): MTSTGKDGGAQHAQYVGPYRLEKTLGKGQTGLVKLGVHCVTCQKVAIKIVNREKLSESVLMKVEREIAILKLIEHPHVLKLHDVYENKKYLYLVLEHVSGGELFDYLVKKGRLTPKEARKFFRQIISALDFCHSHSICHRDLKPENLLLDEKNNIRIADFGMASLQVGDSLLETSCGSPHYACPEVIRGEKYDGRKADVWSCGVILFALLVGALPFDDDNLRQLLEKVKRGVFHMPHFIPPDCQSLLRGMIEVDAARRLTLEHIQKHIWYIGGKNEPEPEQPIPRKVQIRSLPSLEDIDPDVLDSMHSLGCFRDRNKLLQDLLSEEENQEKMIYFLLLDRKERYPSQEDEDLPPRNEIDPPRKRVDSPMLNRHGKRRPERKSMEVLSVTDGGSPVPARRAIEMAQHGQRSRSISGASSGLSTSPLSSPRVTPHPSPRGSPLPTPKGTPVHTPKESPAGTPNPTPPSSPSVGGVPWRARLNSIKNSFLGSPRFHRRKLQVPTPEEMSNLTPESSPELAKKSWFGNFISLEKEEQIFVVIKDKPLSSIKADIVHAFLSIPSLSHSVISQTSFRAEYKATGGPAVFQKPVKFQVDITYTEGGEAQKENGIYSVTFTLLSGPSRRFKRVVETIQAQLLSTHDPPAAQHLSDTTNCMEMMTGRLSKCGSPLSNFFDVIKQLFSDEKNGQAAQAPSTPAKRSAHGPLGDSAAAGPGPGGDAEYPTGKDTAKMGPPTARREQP

[6] = target: Calcium/calmodulin-dependent protein kinase type IV (Homo sapiens) (UniProt Q16566); assay: Inhibition of human CAMK4 assessed as enzyme activity at 1 uM relative to control; design: scale not given: the % may be the effect or the level left
[7] = target: CDK7/Cyclin H/MNAT1 (Homo sapiens) (UniProt P51946+P50613+P51948); assay: Inhibition of human CDK7/cyclinH/MAT1 assessed as enzyme activity at 1 uM relative to control; assay type: protein-complex assay; design: scale not given: the % may be the effect or the level left
[8] = target: Dual specificity protein kinase CLK2 (Homo sapiens) (UniProt P49760); assay: Inhibition of human CLK2 assessed as enzyme activity at 1 uM relative to control; design: scale not given: the % may be the effect or the level left
[9] = target: Tyrosine-protein kinase CSK (Homo sapiens) (UniProt P41240); assay: Inhibition of human CSK assessed as enzyme activity at 1 uM relative to control; design: scale not given: the % may be the effect or the level left
[10] = target: Death-associated protein kinase 1 (Homo sapiens) (UniProt P53355); assay: Inhibition of human DAPK1 assessed as enzyme activity at 1 uM relative to control; design: scale not given: the % may be the effect or the level left
[11] = target: Death-associated protein kinase 2 (Homo sapiens) (UniProt Q9UIK4); assay: Inhibition of human DAPK2 assessed as enzyme activity at 1 uM relative to control; design: scale not given: the % may be the effect or the level left
Sequence of Death-associated protein kinase 2 (Homo sapiens) (Q9UIK4 whole entry, looked up): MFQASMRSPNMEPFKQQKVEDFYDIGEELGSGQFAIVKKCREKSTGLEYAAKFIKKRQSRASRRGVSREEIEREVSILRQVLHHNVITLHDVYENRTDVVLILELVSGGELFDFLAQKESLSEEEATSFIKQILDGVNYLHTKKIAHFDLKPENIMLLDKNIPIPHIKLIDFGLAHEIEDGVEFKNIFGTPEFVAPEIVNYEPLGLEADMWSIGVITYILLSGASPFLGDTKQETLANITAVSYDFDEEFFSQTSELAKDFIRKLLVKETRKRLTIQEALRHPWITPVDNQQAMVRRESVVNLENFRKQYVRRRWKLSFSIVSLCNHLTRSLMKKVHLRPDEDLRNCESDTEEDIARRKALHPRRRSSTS

[12] = target: Ephrin type-A receptor 1 (Homo sapiens) (UniProt P21709); assay: Inhibition of human EphA1 assessed as enzyme activity at 1 uM relative to control; design: scale not given: the % may be the effect or the level left
Sequence of Ephrin type-A receptor 1 (Homo sapiens) (P21709 whole entry): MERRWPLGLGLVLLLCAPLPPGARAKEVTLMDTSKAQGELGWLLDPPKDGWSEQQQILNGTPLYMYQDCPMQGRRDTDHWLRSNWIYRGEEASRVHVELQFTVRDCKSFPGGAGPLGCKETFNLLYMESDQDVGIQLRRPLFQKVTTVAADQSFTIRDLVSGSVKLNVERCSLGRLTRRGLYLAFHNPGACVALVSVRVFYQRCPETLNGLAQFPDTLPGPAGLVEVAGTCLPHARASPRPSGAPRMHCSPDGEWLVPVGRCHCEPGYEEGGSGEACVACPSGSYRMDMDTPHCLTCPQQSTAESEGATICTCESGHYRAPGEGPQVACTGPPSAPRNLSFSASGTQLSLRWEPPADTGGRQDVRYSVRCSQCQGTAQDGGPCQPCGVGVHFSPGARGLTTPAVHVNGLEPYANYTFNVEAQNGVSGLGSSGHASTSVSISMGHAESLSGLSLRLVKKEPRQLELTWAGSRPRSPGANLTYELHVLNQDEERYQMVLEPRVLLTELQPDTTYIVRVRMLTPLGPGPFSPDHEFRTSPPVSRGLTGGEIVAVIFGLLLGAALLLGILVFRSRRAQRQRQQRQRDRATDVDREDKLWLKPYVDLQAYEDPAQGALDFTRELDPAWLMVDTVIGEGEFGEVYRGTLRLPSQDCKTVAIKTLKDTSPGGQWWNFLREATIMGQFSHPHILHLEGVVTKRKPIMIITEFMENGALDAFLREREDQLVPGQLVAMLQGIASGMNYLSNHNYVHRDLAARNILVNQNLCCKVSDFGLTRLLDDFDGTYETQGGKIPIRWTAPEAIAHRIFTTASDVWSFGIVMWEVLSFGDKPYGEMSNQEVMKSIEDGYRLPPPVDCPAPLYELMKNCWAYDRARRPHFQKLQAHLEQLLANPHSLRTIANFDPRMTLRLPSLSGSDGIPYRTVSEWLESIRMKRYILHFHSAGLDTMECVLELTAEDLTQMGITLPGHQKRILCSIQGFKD

[13] = target: Serine/threonine-protein kinase TAO2 (Homo sapiens) (UniProt Q9UL54); assay: Inhibition of human TAO2 assessed as enzyme activity at 1 uM relative to control; design: scale not given: the % may be the effect or the level left
[14] = target: Serine/threonine-protein kinase VRK2 (Homo sapiens) (UniProt Q86Y07); assay: Inhibition of human VRK2 assessed as enzyme activity at 1 uM relative to control; design: scale not given: the % may be the effect or the level left
Sequence of Serine/threonine-protein kinase VRK2 (Homo sapiens) (Q86Y07 whole entry): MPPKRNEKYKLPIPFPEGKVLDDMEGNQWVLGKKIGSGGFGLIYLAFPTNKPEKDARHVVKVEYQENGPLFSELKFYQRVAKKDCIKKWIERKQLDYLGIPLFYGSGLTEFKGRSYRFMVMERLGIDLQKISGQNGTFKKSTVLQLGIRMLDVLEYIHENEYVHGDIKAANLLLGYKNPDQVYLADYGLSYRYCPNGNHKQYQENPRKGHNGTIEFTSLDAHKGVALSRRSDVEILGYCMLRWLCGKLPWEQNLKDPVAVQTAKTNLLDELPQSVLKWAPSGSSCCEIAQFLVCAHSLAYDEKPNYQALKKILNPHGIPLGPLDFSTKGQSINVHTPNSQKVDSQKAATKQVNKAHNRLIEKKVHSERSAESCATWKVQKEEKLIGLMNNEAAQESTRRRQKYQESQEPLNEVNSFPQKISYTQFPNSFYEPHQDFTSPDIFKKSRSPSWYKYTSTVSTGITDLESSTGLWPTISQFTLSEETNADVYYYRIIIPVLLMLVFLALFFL

[15] = target: Tyrosine-protein kinase ZAP-70 (Homo sapiens) (UniProt P43403); assay: Inhibition of human ZAP-70 assessed as enzyme activity at 1 uM relative to control; design: scale not given: the % may be the effect or the level left
Sequence of Tyrosine-protein kinase ZAP-70 (Homo sapiens) (P43403 whole entry): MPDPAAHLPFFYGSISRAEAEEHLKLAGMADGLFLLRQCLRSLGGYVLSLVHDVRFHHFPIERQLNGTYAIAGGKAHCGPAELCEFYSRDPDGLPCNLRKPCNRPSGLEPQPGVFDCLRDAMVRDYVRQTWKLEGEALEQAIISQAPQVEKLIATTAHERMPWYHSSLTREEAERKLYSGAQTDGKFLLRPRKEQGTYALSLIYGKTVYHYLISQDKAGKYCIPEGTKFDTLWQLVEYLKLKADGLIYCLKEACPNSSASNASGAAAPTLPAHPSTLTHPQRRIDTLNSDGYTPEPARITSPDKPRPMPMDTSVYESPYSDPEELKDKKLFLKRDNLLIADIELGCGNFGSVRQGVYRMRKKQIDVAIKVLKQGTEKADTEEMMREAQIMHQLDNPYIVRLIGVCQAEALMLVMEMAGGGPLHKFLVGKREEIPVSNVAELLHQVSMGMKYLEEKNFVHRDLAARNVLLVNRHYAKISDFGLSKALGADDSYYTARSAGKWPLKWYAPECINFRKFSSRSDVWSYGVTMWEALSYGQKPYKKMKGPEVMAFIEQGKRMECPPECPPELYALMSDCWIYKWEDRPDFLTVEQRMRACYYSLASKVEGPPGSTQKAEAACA

[16] = target: RAF proto-oncogene serine/threonine-protein kinase (Homo sapiens) (UniProt P04049); assay: Inhibition of human c-RAF assessed as enzyme activity at 1 uM relative to control; design: scale not given: the % may be the effect or the level left
[17] = target: Serine/threonine-protein kinase 4 (Homo sapiens) (UniProt Q13043); assay: Inhibition of human MST1 assessed as enzyme activity at 1 uM relative to control; design: scale not given: the % may be the effect or the level left
[18] = target: Serine/threonine-protein kinase NLK (Homo sapiens) (UniProt Q9UBE8); assay: Inhibition of human NLK assessed as enzyme activity at 1 uM relative to control; design: scale not given: the % may be the effect or the level left
[19] = target: PAS domain-containing serine/threonine-protein kinase (Homo sapiens) (UniProt Q96RG2); assay: Inhibition of human PASK assessed as enzyme activity at 1 uM relative to control; design: scale not given: the % may be the effect or the level left
[20] = target: Protein kinase C alpha type (Homo sapiens) (UniProt P17252); assay: Inhibition of human PKCalpha assessed as enzyme activity at 1 uM relative to control; design: scale not given: the % may be the effect or the level left
[21] = target: Protein kinase C iota type (Homo sapiens) (UniProt P41743); assay: Inhibition of human PKCiota assessed as enzyme activity at 1 uM relative to control; design: scale not given: the % may be the effect or the level left
[22] = target: Serine/threonine-protein kinase D1 (Homo sapiens) (UniProt Q15139); assay: Inhibition of human PKD1 assessed as enzyme activity at 1 uM relative to control; design: scale not given: the % may be the effect or the level left
[23] = target: Receptor-interacting serine/threonine-protein kinase 2 (Homo sapiens) (UniProt O43353); assay: Inhibition of human RIPK2 assessed as enzyme activity at 1 uM relative to control; design: scale not given: the % may be the effect or the level left
Sequence of Receptor-interacting serine/threonine-protein kinase 2 (Homo sapiens) (O43353 whole entry): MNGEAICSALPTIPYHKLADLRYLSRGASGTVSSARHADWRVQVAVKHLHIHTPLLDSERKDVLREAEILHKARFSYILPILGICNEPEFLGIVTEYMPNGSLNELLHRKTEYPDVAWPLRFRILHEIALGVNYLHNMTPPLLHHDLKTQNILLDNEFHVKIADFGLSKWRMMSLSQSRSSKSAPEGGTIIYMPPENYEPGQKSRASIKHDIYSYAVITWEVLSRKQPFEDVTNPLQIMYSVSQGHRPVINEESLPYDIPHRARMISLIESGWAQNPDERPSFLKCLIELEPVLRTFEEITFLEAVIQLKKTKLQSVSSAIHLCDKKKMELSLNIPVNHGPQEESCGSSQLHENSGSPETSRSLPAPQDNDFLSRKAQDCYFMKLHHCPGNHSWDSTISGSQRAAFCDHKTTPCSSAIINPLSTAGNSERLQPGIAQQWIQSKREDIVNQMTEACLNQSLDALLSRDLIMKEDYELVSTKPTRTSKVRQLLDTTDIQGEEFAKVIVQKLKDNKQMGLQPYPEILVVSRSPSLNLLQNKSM

[24] = target: Proto-oncogene tyrosine-protein kinase receptor Ret (Homo sapiens) (UniProt P07949); assay: Inhibition of human Ret assessed as enzyme activity at 1 uM relative to control; design: scale not given: the % may be the effect or the level left
[25] = target: Ribosomal protein S6 kinase alpha-1 (Homo sapiens) (UniProt Q15418); assay: Inhibition of human Rsk1 assessed as enzyme activity at 1 uM relative to control; design: scale not given: the % may be the effect or the level left
[26] = target: Ribosomal protein S6 kinase alpha-3 (Homo sapiens) (UniProt P51812); assay: Inhibition of human Rsk2 assessed as enzyme activity at 1 uM relative to control; design: scale not given: the % may be the effect or the level left
[27] = target: Serine/threonine-protein kinase 33 (Homo sapiens) (UniProt Q9BYT3); assay: Inhibition of human STK33 assessed as enzyme activity at 1 uM relative to control; design: scale not given: the % may be the effect or the level left
[28] = target: Ephrin type-A receptor 4 (Homo sapiens) (UniProt P54764); assay: Inhibition of human EphA4 assessed as enzyme activity at 1 uM relative to control; design: scale not given: the % may be the effect or the level left
[29] = target: Ephrin type-A receptor 8 (Homo sapiens) (UniProt P29322); assay: Inhibition of human EphA8 assessed as enzyme activity at 1 uM relative to control; design: scale not given: the % may be the effect or the level left
[30] = target: Fibroblast growth factor receptor 1 (Homo sapiens) (UniProt P11362); assay: Inhibition of human FGFR1 assessed as enzyme activity at 1 uM relative to control; design: scale not given: the % may be the effect or the level left
[31] = target: Vascular endothelial growth factor receptor 1 (Homo sapiens) (UniProt P17948); assay: Inhibition of human Flt1 assessed as enzyme activity at 1 uM relative to control; design: scale not given: the % may be the effect or the level left
[32] = target: Receptor-type tyrosine-protein kinase FLT3 (Homo sapiens) (UniProt P36888); assay: Inhibition of human Flt3 assessed as enzyme activity at 1 uM relative to control; design: scale not given: the % may be the effect or the level left
[33] = target: Glycogen synthase kinase-3 alpha (Homo sapiens) (UniProt P49840); assay: Inhibition of human GSK3alpha assessed as enzyme activity at 1 uM relative to control; design: scale not given: the % may be the effect or the level left
[34] = target: Inhibitor of nuclear factor kappa-B kinase subunit alpha (Homo sapiens) (UniProt O15111); assay: Inhibition of human IKKalpha assessed as enzyme activity at 1 uM relative to control; design: scale not given: the % may be the effect or the level left
[35] = target: Mitogen-activated protein kinase 10 (Homo sapiens) (UniProt P53779); assay: Inhibition of human JNK3 assessed as enzyme activity at 1 uM relative to control; design: scale not given: the % may be the effect or the level left
[36] = target: Tyrosine-protein kinase Lck (Homo sapiens) (UniProt P06239); assay: Inhibition of human Lck assessed as enzyme activity at 1 uM relative to control; design: scale not given: the % may be the effect or the level left
[37] = target: Serine/threonine-protein kinase haspin (Homo sapiens) (UniProt Q8TF76); assay: Inhibition of human Haspin assessed as enzyme activity at 1 uM relative to control; design: scale not given: the % may be the effect or the level left

## CCCS(=O)(=O)Nc1cccc(Nc2ccc3ncn(C)c(=O)c3c2)c1C#N
[1]
  inhibition in vivo at 30 mg/kg: 65%
[2]
  Activity: 108%
[3]
  Activity: 95%
Sus scrofa
  Activity: 93%
[4]
  Activity: 93%
[5]
  Activity: 100%
[6]
  Activity: 98%
[7]
  Activity: 104%
[8]
  Activity: 110%
[9]
  Activity: 111%
[10]
  Activity: 102%
[11]
  Activity: 108%
[12]
  Activity: 101%
[13]
  Activity: 97%
[14]
  Activity: 102%
[15]
  Activity: 112%
[16]
  Activity: 1.5%
[17]
  Activity: 108%
[18]
  Activity: 102%
[19]
  Activity: 110%
[20]
  Activity: 97%
[21]
  Activity: 102%
[22]
  Activity: 127%
[23]
  Activity: 98%
[24]
  Activity: 98.5%
[25]
  Activity: 145%
[26]
  Activity: 121%
[27]
  Activity: 91%
[28]
  Activity: 119%
[29]
  Activity: 96%
[30]
  Activity: 110%
[31]
  Activity: 93.5%
[32]
  Activity: 102%
[33]
  Activity: 122%
[34]
  Activity: 129%
[35]
  Activity: 104%
[36]
  Activity: 87%
[37]
  Activity: 99.5%
